The test relates to R223X stop codon in the mutated luciferase gene, ADXC8 luciferase reporter cell line. Put plainly: cells. The conditions noted are these: 24 h, ADXC8 cells, 24 hours; for EC (100% of 200 uM G418 response): read-out: pC100%, negative logarithm of the concentration giving the same response as 200 μM G418; for Emax: read-out: Fold Over Control, maximum fold response relative to 200 μM G418. The test is classed as cell-based.

Take `CNc1nc(N[C@H]2CNC[C@H]2F)nc2nc(C)c3c(c12)CCC3` [Example 347]: the EC (100% of 200 uM G418 response) is 0.1 to 1 µM.

As to `CN1CCC(Nc2nc(N)c3ccc(-c4ccc(C#N)cc4)nc3n2)CC1` [Example 95], the EC (100% of 200 uM G418 response) was in the range of 10 to 100 µM.

`CN1CCC(Nc2nc(N)c3cc(C#N)cnc3n2)CC1` [Example 277]: the Emax is 0 to 100% and the EC (100% of 200 uM G418 response) was > 31.6 µM.

Take `Cc1cc(-c2ccccc2)c2c(N)nc(NC3CCN(C)CC3)nc2n1` [Example 13, 7-methyl-N^2-(1-methylpiperidin-4-yl)-5-phenylpyrido[2,3-d]pyrimidine-2,4-diamine]: the Emax fell in the range of 0 to 100% and the EC (100% of 200 uM G418 response) was > 31.6 µM.

Regarding `Cc1cc(C)c2c(N)nc(NCCN3CCNC3=O)nc2n1` [Example 160], the Emax lay within 0 to 100% and the EC (100% of 200 uM G418 response) is > 100 µM.

With `Cc1cc(C)c2c(N)nc(NC3CCN(Cc4ccccc4S(C)(=O)=O)CC3)nc2n1` [Example 498], the Emax fell in the range of 0 to 100% and the EC (100% of 200 uM G418 response) was > 31.6 µM.

Regarding `CNc1nc(N[C@H]2CN(C)C[C@H]2F)nc2nc(C)c3c(c12)CCC3` [Example 366], the Emax lay in the range of 100 to 3000% and the EC (100% of 200 uM G418 response) lay within 0.1 to 1 µM.

Turning to `CNc1nc(N[C@@]2(C)CCNC2)nc2nc(C)cc(C)c12` [Example 637], the Emax is 0 to 100% and the EC (100% of 200 uM G418 response) was > 31.6 µM.

Regarding `CN1CCC(Nc2nc(N)c3cc(CO)cnc3n2)CC1` [Example 123, {4-amino-2-[(1-methylpiperidin-4-yl)amino]pyrido[2,3-d]pyrimidin-6-yl}methanol], the Emax was in the range of 0 to 100% and the EC (100% of 200 uM G418 response) was > 100 µM.

Regarding `Cc1cc(C)c2c(N)nc(NC3CCN(Cc4c(F)cc(C#N)cc4F)CC3)nc2n1` [Example 551], the Emax was in the range of 100 to 3000% and the EC (100% of 200 uM G418 response) lay in the range of 10 to 100 µM.

In the case of `Cc1cc(C)c2c(NCC(F)(F)F)nc(N[C@@H]3CCN(C)C3)nc2n1` [Example 389], the Emax was in the range of 100 to 3000% and the EC (100% of 200 uM G418 response) fell in the range of 10 to 100 µM.

As for `Cc1cc(C)c2c(N)nc(N[C@@H]3CCN(C)C3)nc2n1` [Example 14, (R)-5,7-dimethyl-N^2-(1-methylpyrrolidin-3-yl)pyrido[2,3-d]pyrimidine-2,4-diamine], the Emax fell in the range of 100 to 3000% and the EC (100% of 200 uM G418 response) lay in the range of 1 to 10 µM.

Regarding `Cc1nc2nc(NC3CCN(C)CC3)nc(N)c2c(C)c1C` [Example 121, 5,6,7-trimethyl-N2-(1-methylpiperidin-4-yl)pyrido[2,3-d]pyrimidine-2,4-diamine], the Emax lay within 100 to 3000% and the EC (100% of 200 uM G418 response) lay in the range of 1 to 10 µM.

`CNC(=O)c1ccc(CN2CCC(Nc3nc(N)c4c(C)cc(C)nc4n3)CC2)cc1` [Example 475]: the Emax lay within 100 to 3000% and the EC (100% of 200 uM G418 response) lay within 10 to 100 µM.

With `CC(=O)Nc1cc(C#N)ccc1CN1CCC(Nc2nc(N)c3c(C)cc(C)nc3n2)CC1` [Example 511, N-(2-((4-((4-amino-5,7-dimethylpyrido[2,3-d]pyrimidin-2-yl)amino)piperidin-1-yl)methyl)-5-cyanophenyl)acetamide], the Emax fell in the range of 100 to 3000% and the EC (100% of 200 uM G418 response) is 1 to 10 µM.

On to `CNc1nc(N[C@@H]2CNC[C@H]2O)nc2nc3c(c(C)c12)CCC3` [Example 546], for which the Emax is 100 to 3000% and the EC (100% of 200 uM G418 response) lay in the range of 1 to 10 µM.

As to `Cc1cc(C)c2c(N)nc(NCCCN3CC(F)(F)C3)nc2n1` [Example 195], the Emax fell in the range of 0 to 100% and the EC (100% of 200 uM G418 response) was > 31.6 µM.

Consider `CC(=O)Nc1cccc(-c2ccc3c(N)nc(NC4CCN(C)CC4)nc3n2)c1` [Example 64], for which the Emax fell in the range of 0 to 100% and the EC (100% of 200 uM G418 response) is > 100 µM.

For `CN1CCC(Nc2nc(N)c3ccc(C4CCCC4)nc3n2)CC1` [Example 310], the EC (100% of 200 uM G418 response) was 1 to 10 µM.

For `Cc1cc(C)c2c(N(C)C)nc(NC3CCN(C)CC3)nc2n1` [Example 262], the Emax is 100 to 3000% and the EC (100% of 200 uM G418 response) fell in the range of 10 to 100 µM.
